The values below come from BindingDB's records for doi:10.1016/j.bmcl.2014.07.074 (Riken-Max Planck Joint Research Center For Systems Chemical …, 2014).

Test [1] is described as follows: Inhibition of human N-terminally His6-tagged N-acetylglucosaminyltransferase 3 expressed in HEK293T cells assessed as GN-GnGnbi-PAs molar ratio level incubated for 1 hr using 5 uM GnGnbi-PA acceptor substrate and 0.5 to 4 mM UDP-GlcNAc donor substrate by reverse phase HPLC method.
Test [2] is described as follows: Inhibition of human N-terminally His6-tagged N-acetylglucosaminyltransferase 3 expressed in HEK293T cells assessed as GN-GnGnbi-PAs molar ratio level incubated for 1 hr using 2.5 to 10 uM GnGnbi-PA acceptor substrate and 20 mM UDP-GlcNAc donor substrate by reverse phase HPLC method.

Usually Ki stands for a dissociation constant, usually derived from enzyme kinetics or from competition with a known ligand. Turning to `CO[C@H]1O[C@H](CO[C@H]2O[C@H](CO)[C@@H](O)[C@H](O)[C@@H]2O[C@@H]2O[C@H](CO)[C@@H](O)[C@H](O)[C@H]2NC(C)=O)[C@@H](O[C@@H]2O[C@H](CO)[C@@H](O)[C@H](O)[C@H]2NC(C)=O)[C@H](O[C@H]2O[C@H](CO)[C@@H](O)[C@H](O)[C@@H]2O[C@@H]2O[C@H](CO)[C@@H](O)[C@H](O)[C@H]2NC(C)=O)[C@@H]1O`, the inhibition constant Ki in test [1] is 1500 µM; in test [2] it was 14000 µM.

As for `CO[C@H]1O[C@H](CO[C@H]2O[C@H](CO)[C@@H](O)[C@H](O)[C@@H]2O[C@@H]2O[C@H](CO)[C@@H](O)[C@H](O)[C@H]2NC(C)=O)[C@@H](O)[C@H](O[C@H]2O[C@H](CO)[C@@H](O)[C@H](O)[C@@H]2O[C@@H]2O[C@H](CO)[C@@H](O)[C@H](O)[C@H]2NC(C)=O)[C@@H]1O`, the figures for the Ki in test [1] and in test [2] were 1400 µM and 1200 µM, respectively.
